Test results: ChEMBL document CHEMBL6078677, “Discovery and optimization of tetrahydroacridine derivatives as a novel class of antibiotics against multidrug-resistant Gram-positive pathogens by targeting type I signal peptidase and disrupting bacterial membrane” (Eur J Med Chem, 2025)
Converted amounts (≈) assume the structure as drawn.

Legend:
[1] = tested on: Staphylococcus aureus; assay: Antimicrobial activity against Staphylococcus aureus ATCC 29213 assessed as inhibition of visible growth of bacteria incubated for 20 hrs by broth microdilution method; assay type: functional
[2] = tested on: Streptococcus suis; assay: microbe, parasite or virus in culture; assay type: functional; conditions: SH0918, time 20 hrs
Description: Antimicrobial activity against Streptococcus suis SH0918 harboring erythromycin-resistance rRNA methylase B, tetracycline efflux protein O and oxazolidinone phenicol transferable resistance gene assessed as inhibition of visible growth of bacteria incubated for 20 hrs by broth microdilution method

[3] = tested on: Streptococcus agalactiae; assay: Antimicrobial activity against Streptococcus agalactiae DL03 harboring erythromycin-resistance rRNA methylase B assessed as inhibition of visible growth of bacteria incubated for 20 hrs by broth microdilution method; assay type: functional
[4] = tested on: Klebsiella pneumoniae; assay: Antimicrobial activity against Klebsiella pneumoniae 9-1 assessed as inhibition of visible growth of bacteria incubated for 20 hrs by broth microdilution method; assay type: functional
[5] = tested on: Escherichia coli; assay: Antimicrobial activity against Escherichia coli ATCC 25922 assessed as inhibition of visible growth of bacteria incubated for 20 hrs by broth microdilution method; assay type: functional
[6] = tested on: Salmonella enteritidis; assay: Antimicrobial activity against Salmonella enteritis S1 assessed as inhibition of visible growth of bacteria incubated for 20 hrs by broth microdilution method; assay type: functional, Salmonella enterica subsp. enterica serovar Enteritidis; conditions: Salmonella enterica
[7] = tested on: Enterococcus faecalis; assay: Antimicrobial activity against Enterococcus faecalis ES01 harboring erythromycin-resistance rRNA methylase B and vanB-type vancomycin-resistance locus assessed as inhibition of visible growth of bacteria incubated for 20 hrs by broth microdilution method; assay type: functional
[8] = tested on: Enterococcus faecium; assay: Antimicrobial activity against Enterococcus faecium MC38 harboring erythromycin resistance rRNA methylase B and oxazolidinone-phenicol transferable resistance gene assessed as inhibition of visible growth of bacteria incubated for 20 hrs by broth microdilution method; assay type: functional
[9] = tested on: Enterococcus faecium; assay: Antimicrobial activity against Enterococcus faecium QF31 harboring erythromycin resistance rRNA methylase B and chloramphenicol-florfenicol resistance methylase assessed as inhibition of visible growth of bacteria incubated for 20 hrs by broth microdilution method; assay type: functional
[10] = tested on: Enterococcus faecalis; assay: Antimicrobial activity against Enterococcus faecalis JH2-2 assessed as inhibition of visible growth of bacteria incubated for 20 hrs by broth microdilution method; assay type: functional
[11] = tested on: Streptococcus pyogenes; assay: Antimicrobial activity against Streptococcus pyogenes DL02 harboring erythromycin-resistance rRNA methylase B assessed as inhibition of visible growth of bacteria incubated for 20 hrs by broth microdilution method; assay type: functional
[12] = tested on: Enterococcus faecalis; assay: microbe, parasite or virus in culture; assay type: functional; conditions: SF23-1, time 20 hrs
Description: Antimicrobial activity against Enterococcus faecalis SF23-1 harboring erythromycin-resistance rRNA methylase B, tetracycline efflux protein L and chloramphenicol-florfenicol resistance methylase assessed as inhibition of visible growth of bacteria incubated for 20 hrs by broth microdilution method

[13] = tested on: Staphylococcus aureus; assay: Antimicrobial activity against Staphylococcus aureus YZSA-21 harboring erythromycin resistance rRNA methylase C assessed as inhibition of visible growth of bacteria incubated for 20 hrs by broth microdilution method; assay type: functional
[14] = tested on: Acinetobacter baumannii; assay: Antimicrobial activity against Acinetobacter baumannii 7979 assessed as inhibition of visible growth of bacteria incubated for 20 hrs by broth microdilution method; assay type: functional
[15] = tested on: Pseudomonas aeruginosa; assay: Antimicrobial activity against Pseudomonas aeruginosa PA14 assessed as inhibition of visible growth of bacteria incubated for 20 hrs by broth microdilution method; assay type: functional
[16] = tested on: Staphylococcus aureus; assay: Antimicrobial activity against Staphylococcus aureus YZSA-24 harboring erythromycin resistance rRNA methylase C and methicillin resistance gene resistance locus assessed as inhibition of visible growth of bacteria incubated for 20 hrs by broth microdilution method; assay type: functional
[17] = tested on: Staphylococcus aureus; assay: Antimicrobial activity against Staphylococcus aureus YZSA-15 harboring erythromycin resistance rRNA methylase C and vancomycin resistance locus assessed as inhibition of visible growth of bacteria incubated for 20 hrs by broth microdilution method; assay type: functional
[18] = tested on: Pseudomonas aeruginosa; assay: Antimicrobial activity against Pseudomonas aeruginosa PA01 assessed as inhibition of visible growth of bacteria incubated for 20 hrs by broth microdilution method; assay type: functional
[19] = tested on: Acinetobacter baumannii; assay: Antimicrobial activity against Acinetobacter baumannii AB11 assessed as inhibition of visible growth of bacteria incubated for 20 hrs by broth microdilution method; assay type: functional
[20] = tested on: Streptococcus suis; assay: Antimicrobial activity against Streptococcus suis P1/7 assessed as inhibition of visible growth of bacteria incubated for 20 hrs by broth microdilution method; assay type: functional
[21] = tested on: Enterococcus faecalis; assay: Antimicrobial activity against Enterococcus faecalis J2 harboring erythromycin-resistance rRNA methylase B and oxazolidinone phenicol transferable resistance gene assessed as inhibition of visible growth of bacteria incubated for 20 hrs by broth microdilution method; assay type: functional
[22] = tested on: Staphylococcus aureus; assay: microbe, parasite or virus in culture; assay type: functional; conditions: M147-2, time 20 hrs
Description: Antimicrobial activity against Staphylococcus aureus M147-2 harboring erythromycin resistance rRNA methylase B, tetracycline efflux protein L and chloramphenicol-florfenicol resistance methylase assessed as inhibition of visible growth of bacteria incubated for 20 hrs by broth microdilution method

[23] = tested on: Staphylococcus aureus; assay: microbe, parasite or virus in culture; assay type: functional; conditions: M92-1, time 20 hrs
Description: Antimicrobial activity against Staphylococcus aureus M92-1 harboring erythromycin resistance rRNA methylase B, tetracycline efflux protein L and oxazolidinone-phenicol transferable resistance gene assessed as inhibition of visible growth of bacteria incubated for 20 hrs by broth microdilution method

[24] = tested on: Enterococcus faecium; assay: Antimicrobial activity against Enterococcus faecium HFY01 assessed as inhibition of visible growth of bacteria incubated for 20 hrs by broth microdilution method; assay type: functional

SMILES	MIC [1] [µg/mL]	MIC [2] [µg/mL]	MIC [3] [µg/mL]	MIC [4] [µg/mL]	MIC [5] [µg/mL]	MIC [6] [µg/mL]	MIC [7] [µg/mL]	MIC [8] [µg/mL]	MIC [9] [µg/mL]	MIC [10] [µg/mL]	MIC [11] [µg/mL]	MIC [12] [µg/mL]	MIC [14] [µg/mL]	MIC [15] [µg/mL]	MIC [16] [µg/mL]	MIC [17] [µg/mL]	MIC [18] [µg/mL]	MIC [19] [µg/mL]	MIC [20] [µg/mL]	MIC [21] [µg/mL]	further results
CCC[C@@H]1C[C@@H](C(=O)N[C@@H]([C@H]2O[C@H](SC)[C@H](O)[C@@H](O)[C@H]2O)[C@H](C)Cl)N(C)C1 [CLINDAMYCIN]	0.125 (≈ 0.294 µM)	> 32	> 32	> 32	> 32	> 32	> 32	> 32	> 32	0.5 (≈ 1.18 µM)	> 32	> 32	> 32	> 32	> 32	> 32	> 32	0.5 (≈ 1.18 µM)	0.125 (≈ 0.294 µM)	> 32	MIC [13]: > 32 µg/mL; MIC [22]: > 32 µg/mL; MIC [23]: > 32 µg/mL; MIC [24]: 0.5 µg/mL (≈ 1.18 µM)
C[C@H]1c2cccc(O)c2C(=O)C2=C(O)[C@]3(O)C(=O)C(C(N)=O)=C(O)[C@@H](N(C)C)[C@@H]3[C@@H](O)[C@@H]21 [DOXYCYCLINE ANHYDROUS]	0.25 (≈ 0.563 µM)	16 (≈ 36 µM)	< 0.06	> 32	1 (≈ 2.25 µM)	> 32	2 (≈ 4.5 µM)	16 (≈ 36 µM)	16 (≈ 36 µM)	4 (≈ 9 µM)	2 (≈ 4.5 µM)	16 (≈ 36 µM)	> 32	16 (≈ 36 µM)	0.5 (≈ 1.13 µM)	0.25 (≈ 0.563 µM)	8 (≈ 18 µM)	< 0.06	0.125 (≈ 0.281 µM)	8 (≈ 18 µM)	MIC [13]: 0.25 µg/mL (≈ 0.563 µM); MIC [22]: > 32 µg/mL; MIC [23]: > 32 µg/mL; MIC [24]: < 0.06 µg/mL
CC[C@H]1OC(=O)[C@H](C)[C@@H](O[C@H]2C[C@@](C)(OC)[C@@H](O)[C@H](C)O2)[C@H](C)[C@@H](O[C@@H]2O[C@H](C)C[C@H](N(C)C)[C@H]2O)[C@](C)(O)C[C@@H](C)C(=O)[C@H](C)[C@@H](O)[C@]1(C)O [ERYTHROMYCIN]	1 (≈ 1.36 µM)	> 32	> 32	–	–	–	> 32	> 32	> 32	0.25 (≈ 0.341 µM)	> 32	> 32	–	–	> 32	> 32	–	–	0.125 (≈ 0.17 µM)	> 32	MIC [13]: > 32 µg/mL; MIC [22]: > 32 µg/mL; MIC [23]: > 32 µg/mL; MIC [24]: 2 µg/mL (≈ 2.73 µM)
C[C@H]1COc2c(N3CCN(C)CC3)c(F)cc3c(=O)c(C(=O)O)cn1c23 [LEVOFLOXACIN ANHYDROUS]	–	–	–	> 32	0.125 (≈ 0.346 µM)	0.5 (≈ 1.38 µM)	–	–	–	–	–	–	> 32	0.125 (≈ 0.346 µM)	–	–	0.5 (≈ 1.38 µM)	0.125 (≈ 0.346 µM)	–	–	–
C[C@@H](O)[C@H]1C(=O)N2C(C(=O)O)=C(S[C@@H]3CN[C@H](C(=O)N(C)C)C3)[C@H](C)[C@H]12 [MEROPENEM]	–	–	–	4 (≈ 10.4 µM)	0.25 (≈ 0.652 µM)	0.25 (≈ 0.652 µM)	–	–	–	–	–	–	> 32	0.5 (≈ 1.3 µM)	–	–	0.5 (≈ 1.3 µM)	< 0.06	–	–	–
CN[C@H](CC(C)C)C(=O)N[C@H]1C(=O)N[C@@H](CC(N)=O)C(=O)N[C@H]2C(=O)N[C@H]3C(=O)N[C@H](C(=O)N[C@H](C(=O)O)c4cc(O)cc(O)c4-c4cc3ccc4O)[C@H](O)c3ccc(c(Cl)c3)Oc3cc2cc(c3O[C@@H]2O[C@H](CO)[C@@H](O)[C@H](O)[C@H]2O[C@H]2C[C@](C)(N)[C@H](O)[C@H](C)O2)Oc2ccc(cc2Cl)[C@H]1O [VANCOMYCIN]	–	< 0.06	0.125 (≈ 0.0863 µM)	–	–	–	16 (≈ 11 µM)	–	–	2 (≈ 1.38 µM)	< 0.06	2 (≈ 1.38 µM)	–	–	< 0.06	16 (≈ 11 µM)	–	–	< 0.06	2 (≈ 1.38 µM)	–
